Values of other authors in paper PMC9112550, “Optimization of the antimicrobial peptide Bac7 by deep mutational scanning” (BMC Biology, 2022).

Test system: Salmonella typhimurium
Conditions: 30 mg kg^−1, mice infected with Salmonella typhimurium intraperitoneally
From the text: Lastly, it is hard to judge if the activity increase of Bac7PS compared to Bac7_1-23 measured in vitro can be translated to in vivo experiments. […] In our study, all untreated mice already ...

**Q.** For “Bac7_1-35: Bac7_1-35 (35 amino acid long) (RRIRPRPPRLPRPRPRPLPFPRPGPRPIPRPLPFP; Bactenecin-7; UniProt P19661 131-165, looked up, fragment)”, which efficacy is on record?
**A.** The efficacy was 36%.

**Q.** What about the mean survival (untreated control 10 days) of the same substance?
**A.** The mean survival was 24.5 days.
